Tests used:
[1] = tested on: IL-13 induced STAT6 phosphorylation in HT-29 human colorectal adenocarcinoma cells; test: Cellular JAK potency assay: inhibition of IL-13; assay type: cell-based; conditions: HT-29 cells
Experimental: The potency of test compounds for inhibition of the JAK-dependent cytokine interleuken-13 (IL-13) was assessed by measuring IL-13 (IL-13, R&D Systems) induced STAT6 phosphorylation in HT-29 human colorectal adenocarcinoma cells (ATCC).
The anti-STAT6 antibody (Cell Signaling Technologies) was conjugated to AlphaScreen acceptor beads (Perkin Elmer), while the anti-pSTAT6 (pTyr641) antibody (Cell Signaling Technologies) was biotinylated using EZ-Link Sulfo-NHS-Biotin (Thermo Scientific).
HT-29 cells were grown at 37° C. in a 5% CO2 humidified incubator in McCoy's 5a Modified medium (ATCC) supplemented with 10% FBS (Hyclone), 100 U/mL penicillin, 100 μg/mL streptomycin (Life Technologies), and 2 mM GlutaMAX (Life Technologies). On day 1 of the assay, cells were seeded at a 7,500 cells/well density in white poly-D-lysine-coated 384-well plates (Corning) with 25 μL medium, and were allowed to adhere overnight in the incubator. On day 2 of the assay, the medium was removed and replaced with 12 μL of assay buffer (Hank's Balanced Salt Solution/HBSS, 25 mM HEPES, and 1 mg/ml bovine serum albumin/BSA) containing dose-responses of test compounds. Compounds were serially diluted in DMSO and then diluted another 1000-fold in media to bring the final DMSO concentration to 0.1%. Cells were incubated with test compounds at 37° C. for 1 h, and followed by the addition of 12 μl of pre-warmed IL-13 (12 ng/ml in assay buffer) for stimulation. After incubating at 37° C. for 30 min, the assay buffer (containing compound and IL-13) was removed, and 10 μl of cell lysis buffer (25 mM HEPES, 0.1% SDS, 1% NP-40, 5 mM MgCl2, 1.3 mM EDTA, 1 mM EGTA, and supplement with Complete Ultra mini protease inhibitors and PhosSTOP from Roche Diagnostics). The plates were shaken at ambient temperature for 30 min before the addition of detection reagents. A mixture of biotin-anti-pSTAT6 and anti-STAT6 conjugated acceptor beads was added first and incubated at ambient temperature for 2 h, followed by the addition of streptavidin conjugated donor beads (Perkin Elmer). After a minimum of 2 h incubation, the assay plates were read on the EnVision plate reader.
Results were expressed as the negative logarithm of the IC50 value, pIC50.

JAK1 = JAK1 (Homo sapiens (Human), UniProt P23458); test: LanthaScreen JAK biochemical assay, JAK1
JAK1, sequence (P23458 whole entry): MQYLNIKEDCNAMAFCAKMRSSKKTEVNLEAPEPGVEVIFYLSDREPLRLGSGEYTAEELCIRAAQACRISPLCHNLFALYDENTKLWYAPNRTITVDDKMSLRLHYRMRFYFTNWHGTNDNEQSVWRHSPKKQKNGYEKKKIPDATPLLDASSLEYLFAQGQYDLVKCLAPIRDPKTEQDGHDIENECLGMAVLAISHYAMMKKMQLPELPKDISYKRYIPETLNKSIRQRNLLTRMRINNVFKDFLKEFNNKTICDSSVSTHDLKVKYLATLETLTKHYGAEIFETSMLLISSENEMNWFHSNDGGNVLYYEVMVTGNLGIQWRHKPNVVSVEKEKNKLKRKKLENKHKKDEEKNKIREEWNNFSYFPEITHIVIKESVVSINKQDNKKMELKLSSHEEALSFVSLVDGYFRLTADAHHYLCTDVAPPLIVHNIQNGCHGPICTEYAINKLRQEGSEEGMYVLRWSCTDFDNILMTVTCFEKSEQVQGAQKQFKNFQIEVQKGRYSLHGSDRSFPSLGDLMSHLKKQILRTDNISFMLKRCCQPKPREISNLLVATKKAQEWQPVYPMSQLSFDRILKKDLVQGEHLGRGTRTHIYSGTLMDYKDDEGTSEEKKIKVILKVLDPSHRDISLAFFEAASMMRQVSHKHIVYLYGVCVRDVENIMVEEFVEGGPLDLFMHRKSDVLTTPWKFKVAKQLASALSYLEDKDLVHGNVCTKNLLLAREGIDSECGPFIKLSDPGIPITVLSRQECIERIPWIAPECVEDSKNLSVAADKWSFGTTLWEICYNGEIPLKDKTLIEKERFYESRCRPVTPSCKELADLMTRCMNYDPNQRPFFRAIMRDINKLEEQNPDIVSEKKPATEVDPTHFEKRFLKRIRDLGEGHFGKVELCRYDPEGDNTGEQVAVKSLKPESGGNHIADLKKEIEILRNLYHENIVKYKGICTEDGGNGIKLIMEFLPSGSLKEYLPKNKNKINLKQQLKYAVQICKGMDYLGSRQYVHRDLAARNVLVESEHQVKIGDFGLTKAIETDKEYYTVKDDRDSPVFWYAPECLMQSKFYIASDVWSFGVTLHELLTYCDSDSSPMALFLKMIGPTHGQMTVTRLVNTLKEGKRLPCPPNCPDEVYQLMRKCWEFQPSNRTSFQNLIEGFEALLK
Experimental: (§1) A panel of four LanthaScreen JAK biochemical assays (JAK1, 2, 3 and Tyk2) were carried in a common kinase reaction buffer (50 mM HEPES, pH 7.5, 0.01% Brij-35, 10 mM MgCl2, and 1 mM EGTA). Recombinant GST-tagged JAK enzymes and a GFP-tagged STAT1 peptide substrate were obtained from Life Technologies.
(§2) Serially diluted compounds were pre-incubated with each of the four JAK enzymes and the substrate in white 384-well microplates (Corning) at ambient temperature for 1 h. ATP was subsequently added to initiate the kinase reactions in 10 μl total volume, with 1% DMSO. […] The plates were allowed to incubate at ambient temperature for 1 h before being read on the EnVision reader (Perkin Elmer).
(§3) For dose-response analysis, percent inhibition data were plotted vs. compound concentrations, and IC50 values were determined from a 4-parameter robust fit model with the Prism software (GraphPad Software). Results were expressed as pIC50 (negative logarithm of IC50) and subsequently converted to pKi (negative logarithm of dissociation constant, Ki) using the Cheng-Prusoff equation.

JAK2 = JAK2 (Homo sapiens (Human), UniProt O60674); test: LanthaScreen JAK biochemical assay, JAK2
JAK2, sequence (O60674 whole entry): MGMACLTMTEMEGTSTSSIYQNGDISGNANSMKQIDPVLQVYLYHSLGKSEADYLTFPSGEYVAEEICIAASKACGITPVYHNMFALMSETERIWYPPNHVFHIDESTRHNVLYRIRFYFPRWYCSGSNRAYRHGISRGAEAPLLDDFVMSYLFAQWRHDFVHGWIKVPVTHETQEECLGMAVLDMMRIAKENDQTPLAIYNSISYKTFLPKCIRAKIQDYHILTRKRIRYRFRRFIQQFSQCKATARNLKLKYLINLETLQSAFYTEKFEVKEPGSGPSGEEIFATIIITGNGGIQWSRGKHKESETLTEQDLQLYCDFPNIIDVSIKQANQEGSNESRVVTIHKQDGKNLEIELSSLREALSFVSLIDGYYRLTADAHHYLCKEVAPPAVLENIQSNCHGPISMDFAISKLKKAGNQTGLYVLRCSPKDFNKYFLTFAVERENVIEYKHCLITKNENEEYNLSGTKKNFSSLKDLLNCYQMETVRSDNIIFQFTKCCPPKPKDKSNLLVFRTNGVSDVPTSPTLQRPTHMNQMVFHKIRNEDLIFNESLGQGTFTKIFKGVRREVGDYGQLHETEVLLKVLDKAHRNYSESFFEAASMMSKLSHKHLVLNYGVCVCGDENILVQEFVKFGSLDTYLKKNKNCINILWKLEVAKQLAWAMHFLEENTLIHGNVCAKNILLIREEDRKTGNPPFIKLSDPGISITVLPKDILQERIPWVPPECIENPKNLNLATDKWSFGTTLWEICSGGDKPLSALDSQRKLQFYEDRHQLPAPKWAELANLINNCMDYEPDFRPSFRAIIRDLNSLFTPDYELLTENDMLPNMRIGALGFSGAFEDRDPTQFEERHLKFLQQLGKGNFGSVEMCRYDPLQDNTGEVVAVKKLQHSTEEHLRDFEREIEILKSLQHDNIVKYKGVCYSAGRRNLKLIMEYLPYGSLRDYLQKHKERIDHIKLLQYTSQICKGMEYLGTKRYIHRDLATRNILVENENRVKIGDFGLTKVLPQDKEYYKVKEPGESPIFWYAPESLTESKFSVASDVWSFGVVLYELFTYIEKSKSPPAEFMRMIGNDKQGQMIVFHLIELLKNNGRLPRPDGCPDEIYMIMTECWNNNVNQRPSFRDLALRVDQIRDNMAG
Experimental: as §1, §2, §3

[2] = Determination of absorption in cannulated rats; assay type: in vivo, Sprague Dawley rats; conditions: rat, oral vs IV dose, portal vein
Experimental: Oral bioavailability (F %), fraction absorbed (Fa%) and fraction escaping hepatic clearance (Fh%) were determined in Sprague Dawley rats from the following two studies:
(1) Pharmacokinetics in rats following an IV dose of test compound: Following IV dosing, plasma samples were typically collected from 0-6 hr. Drug levels were determined using an LC-MS-MS method. The resulting drug levels were used to compute the IV pharmacokinetic parameters: AUC IV and Dose IV.
(2) Rats that have been cannulated in their portal vein (PV) and also in their jugular vein (JV) were dosed orally with test compound. Following oral dosing, plasma samples were typically collected from 0-6 hr from both the portal vein and the jugular vein. Drug levels were determined using an LC-MS-MS method. The resulting drug levels were used to compute the following pharmacokinetic parameters: AUC PO PV, AUC PO JV, and Dose PO.
Using data derived from the above studies, the oral bioavailability F %, and the quantities Fa% and Fh% were calculated from the following formulas: F%=(AUC PO JV/AUC IV)*(Dose IV/Dose PO)*100 Fa%=(AUC PO PV/AUC IV)*(Dose IV/Dose PO)*100 Fh%=AUC PO JV/AUC PO PV • where: • AUC PO JV=Area under the curve following oral dose and plasma collected from the jugular vein • AUC PO PV=Area under the curve following oral dose and plasma collected from the portal vein • AUC IV=Area under the curve following an intravenous dose • Dose IV=Intravenous Dose in mg/kg • Dose PO=Oral Dose in mg/kg

[3] = tested on: oxazolone-induced colitis; test: Mouse model of oxazolone-induced colitis; assay type: in vivo, BALB/C mice; conditions: mice, PO, 1, 3, and/or 10 mg/kg BID
Experimental: Oxazolone-induced colitis is an experimental model that has a histological resemblance to human ulcerative colitis (Heller et al. […], 2002, 17, 629-638). Adult BALB/C mice from Harlan were used in the assay. On day 1, animals were lightly anesthetized with isoflurane and the hairs between the shoulder were carefully removed before oxazolone (4%, 150 μL, 4:1 acetone: olive oil formulation) or vehicle solution was slowly applied for skin sensitization. Seven days after skin sensitization, the mice were fasted overnight, anesthetized with isoflurane inhalation, and a 1 mL syringe equipped with a 3.5-F catheter, filled with oxazolone solution, was inserted carefully about 4 cm into the colon of the mouse. Following insertion, 50 μL of the oxazolone solution (1%, 1:1 ethanol:water formulation) was injected very slowly (over 30 sec using an injection pump) into the colon. The catheter was removed and the mice were held vertically (head down) for 2 min to ensure that the entire oxazolone solution remained inside the colon. Drug treatment (PO, BID or TID) or vehicle was initiated a day prior to the oxazolone intrarectal (IR) challenge. Two-day post oxazolone intrarectal challenge, the Disease Activity Index (DAI) was assessed by treatment-blinded experimenters for each mouse according to the criteria score: stool consistency score (0, normal; 2, loose; 4, diarrhea), gross bleeding score (0, absence; 2, blood tinged; 4, presence), and weight loss score (0, none; 1, 1%-5%; 2, 5%-10%; 3, 10%-20%; 4, more than 20%); DAI=average of (stool consistency score+gross bleeding score+weight loss score).

[4] = Dynamic moisture sorption assessment; assay type: physicochemical; conditions: for hygroscopicity: 5% to 90% RH, two cycles of sorption and desorption; for weight gain in the humidity range of 5% to 90% relative humidity: 25° C. / room temperature
Experimental: Dynamic moisture sorption (DMS) measurement was performed using a VTI atmospheric microbalance, SGA-100 system (VTI Corp., Hialeah, Fla. 33016). A weighed sample was used and the humidity was lowest possible value (close to 0% RH) at the start of the analysis. The DMS analysis consisted of an initial drying step (0% RH) for 120 minutes, followed by two cycles of sorption and desorption with a scan rate of 5% RH/step over the humidity range of 5% RH to 90% RH. The DMS run was performed isothermally at 25° C.

With COc1cc(Nc2cc(CO)[nH]n2)nc(N[C@@H]2C[C@H]3CCC[C@@H](C2)N3S(=O)(=O)c2ccccc2)n1 [Example 1-8, (3-((6-methoxy-2-(((1R,3s,5S)-9-(phenylsulfonyl)-9-azabicyclo[3.3.1]nonan-3-yl)amino)pyrimidin-4-yl)amino)-1H-pyrazol-5-yl)methanol] the “HT-29 (pIC50)” value [1] was “A (A represents a pIC50 value ≥7.5 (IC50≤32 nM))” and the “JAK 1 (pKi)” value (JAK1) was “A (A represents a pKi value ≥10 (Ki≤0.1 nM))”.
In the case of COc1cc(Nc2cc(CO)[nH]n2)nc(N(C)[C@@H]2C[C@H]3CCC[C@@H](C2)N3C(=O)C(F)F)n1 [Example 9, 2,2-difluoro-1-((1R,3s,5S)-3-((4-((5-(hydroxymethyl)-1H-pyrazol-3-yl)amino)-6-methoxypyrimidin-2-yl)(methyl)amino)-9-azabicyclo[3.3.1]nonan-9-yl)ethan-1-one], the IC50 ([1]; Homo sapiens, read-out: HT-29 (pIC50) (converted)) is reported as 31.6 to 200 nM.
In the case of COc1cc(Nc2cc(CO)[nH]n2)nc(N(C)[C@@H]2C[C@H]3CCC[C@@H](C2)N3S(=O)(=O)N2CCC2)n1 [Example 1-17, (3-((2-(((1R,3s,5S)-9-(azetidin-1-ylsulfonyl)-9-azabicyclo[3.3.1]nonan-3-yl)(methyl)amino)-6-methoxypyrimidin-4-yl)amino)-1H-pyrazol-5-yl)methanol], the “HT-29 (pIC50)” value [1] is reported as “A (A represents a pIC50 value ≥7.5 (IC50≤32 nM))” and the “JAK 2 (pKi)” value (JAK2) is reported as “A (A represents a pKi value ≥10 (Ki≤0.1 nM))”.
In the case of COc1cc(Nc2cc(CO)[nH]n2)nc(N(C)[C@@H]2C[C@H]3CCC[C@@H](C2)N3S(=O)(=O)N2CCCC2)n1 [Example 1-13, (3-((6-methoxy-2-(methyl((1R,3s,5S)-9-(pyrrolidin-1-ylsulfonyl)-9-azabicyclo[3.3.1]nonan-3-yl)amino)pyrimidin-4-yl)amino)-1H-pyrazol-5-yl)methanol], the “HT-29 (pIC50)” value [1] is reported as “A (A represents a pIC50 value ≥7.5 (IC50≤32 nM))”, the “JAK 1 (pKi)” value (JAK1) is reported as “A (A represents a pKi value ≥10 (Ki≤0.1 nM))” and the “JAK 2 (pKi)” value (JAK2) is reported as “A (A represents a pKi value ≥10 (Ki≤0.1 nM))”.
With COCCS(=O)(=O)N1[C@@H]2CCC[C@H]1C[C@H](N(C)c1nc(Nc3cc(CO)[nH]n3)cc(OC)n1)C2 [Example 4, (3-((6-methoxy-2-(((1R,3s,5S)-9-((2-methoxyethyl)sulfonyl)-9-azabicyclo[3.3.1]nonan-3-yl)(methyl)amino)pyrimidin-4-yl)amino)-1H-pyrazol-5-yl)methanol] the “absorption at the portal vein (Fa%)” value [2] was “greater than 40%” and the “decrease in DAI score as compared with vehicle treated animals” value [3] was “statistically significant decrease”.
In the case of COc1cc(Nc2cc(CO)[nH]n2)nc(N(C)[C@@H]2C[C@H]3CCC[C@@H](C2)N3S(=O)(=O)c2cncc(F)c2)n1 [Example 1-19, (3-((2-(((1R,3s,5S)-9-((5-fluoropyridin-3-yl)sulfonyl)-9-azabicyclo[3.3.1]nonan-3-yl)(methyl)amino)-6-methoxypyrimidin-4-yl)amino)-1H-pyrazol-5-yl)methanol], the “HT-29 (pIC50)” value [1] is reported as “A (A represents a pIC50 value ≥7.5 (IC50≤32 nM))”.
For COc1cc(Nc2cc(CO)[nH]n2)nc(N(C)[C@@H]2C[C@H]3CCC[C@@H](C2)N3S(=O)(=O)N2CC(C#N)C2)n1 [Form II, 1-(((1R,3s,5S)-3-((4-((5-(hydroxymethyl)-1H-pyrazol-3-yl)amino)-6-methoxypyrimidin-2-yl)(methyl)amino)-9-azabicyclo[3.3.1]nonan-9-yl)sulfonyl)azetidine-3-carbonitrile], the hygroscopicity [4] was “slightly hygroscopic” and the “weight gain in the humidity range of 5% to 90% relative humidity” value (“weight gain … to 90% relative humidity” for short) [4] was “about 1.2%”.
In the case of COc1cc(Nc2cc(CO)[nH]n2)nc(N(C)[C@@H]2C[C@H]3CCC[C@@H](C2)N3S(=O)(=O)c2cccnc2)n1 [Example 1-15, (3-((6-methoxy-2-(methyl((1R,3s,5S)-9-(pyridin-3-ylsulfonyl)-9-azabicyclo[3.3.1]nonan-3-yl)amino)pyrimidin-4-yl)amino)-1H-pyrazol-5-yl)methanol], the “JAK 2 (pKi)” value (JAK2) is reported as “A (A represents a pKi value ≥10 (Ki≤0.1 nM))”.
In the case of COc1cc(Nc2cc(CO)[nH]n2)nc(N[C@@H]2C[C@H]3CCC[C@@H](C2)N3S(=O)(=O)N2CC(C#N)C2)n1 [Example 1-6, 1-(((1R,3s,5S)-3-((4-((5-(hydroxymethyl)-1H-pyrazol-3-yl)amino)-6-methoxypyrimidin-2-yl)amino)-9-azabicyclo[3.3.1]nonan-9-yl)sulfonyl)azetidine-3-carbonitrile], the “JAK 1 (pKi)” value (JAK1) is reported as “A (A represents a pKi value ≥10 (Ki≤0.1 nM))”.
With COc1cc(Nc2cc(CO)[nH]n2)nc(N(C)[C@@H]2C[C@H]3CCC[C@@H](C2)N3S(=O)(=O)N2CC(C#N)C2)n1 [Form I, 1-(((1R,3s,5S)-3-((4-((5-(hydroxymethyl)-1H-pyrazol-3-yl)amino)-6-methoxypyrimidin-2-yl)(methyl)amino)-9-azabicyclo[3.3.1]nonan-9-yl)sulfonyl)azetidine-3-carbonitrile] the hygroscopicity [4] was “non-hygroscopic”, the “weight gain … to 90% relative humidity” value [4] was “less than 0.4%” and the “weight gain … to 90% relative humidity” value ([4]; listed as Crystalline 1-((1R,3s,5S)-3-((4-((5-(hydroxymethyl)-1H-pyrazol-3-yl)amino)-6-me)))) was “less than 0.4%”.
With COc1cc(Nc2cc(CO)[nH]n2)nc(N(C)[C@@H]2C[C@H]3CCC[C@@H](C2)N3S(C)(=O)=O)n1 [Example 3, (3-((6-methoxy-2-(methyl((1R,3s,5S)-9-(methylsulfonyl)-9-azabicyclo[3.3.1]nonan-3-yl)amino)pyrimidin-4-yl)amino)-1H-pyrazol-5-yl)methanol] the “absorption at the portal vein (Fa%)” value [2] was “greater than 40%”.
With COc1cc(Nc2cc(CO)[nH]n2)nc(N(C)[C@@H]2C[C@H]3CCC[C@@H](C2)N3S(=O)(=O)C2CC2)n1 [Example 1-14, (3-((2-(((1R,3s,5S)-9-(cyclopropylsulfonyl)-9-azabicyclo[3.3.1]nonan-3-yl)(methyl)amino)-6-methoxypyrimidin-4-yl)amino)-1H-pyrazol-5-yl)methanol] the “HT-29 (pIC50)” value [1] was “A (A represents a pIC50 value ≥7.5 (IC50≤32 nM))” and the “JAK 2 (pKi)” value (JAK2) was “A (A represents a pKi value ≥10 (Ki≤0.1 nM))”.

— US10485803B2, “Pyrimidine compounds as JAK kinase inhibitors” (THERAVANCE BIOPHARMA R&D IP, LLC, priority 2016, dated 2019)
